In patent US10059741B2 (priority 2015, dated 2018):
Where two headings read alike, the source gives them in different places. Bridge positions count the residues as written; N and C are the ends. Square brackets hold non-standard residues; d marks the D form. Peptide text beside a SMILES is read from it. R8 = C=CCCCCCC[C@@](C)(N)C(=O)O; S5 = C=CCCC[C@](C)(N)C(=O)O; Nle = CCCC[C@H](N)C(=O)O

Assays:
H1N1 California/07/2009 [1] = experiment: microbe, parasite or virus in culture; type: cell-based, influenza A virus; settings: Cytopathic effect/toxicity (Visual), MDCK cells; read-out: EC50 (μM) H1N1 California/07/2009
H3N2 Perth/16/2009 [2] = experiment: microbe, parasite or virus in culture; type: cell-based, influenza A virus
H1N1 California/07/2009 [3] = experiment: microbe, parasite or virus in culture; type: cell-based, influenza A virus
H3N2 Perth/16/2009 [4] = experiment: microbe, parasite or virus in culture; type: cell-based, influenza A virus; remark: listed apart in the source
[5] = tested on: H1N1 A/Solomon Island/03/2006; type: cell-based, influenza A virus; settings: Influenza A H1N1 A/Solomon Is./3/2006-M; Drug Assay Neutral Red; read-out: EC50
[6] = tested on: H5N1 A/Hong Kong/213/2003; experiment: microbe, parasite or virus in culture; type: cell-based, influenza A virus; settings: read-out: EC50
H7N9 A/Anhui/1/2013 = experiment: microbe, parasite or virus in culture; type: cell-based, influenza A virus; settings: read-out: EC50
[7] = tested on: influenza virus, various viral strains; experiment: organism not typed; type: cell-based; settings: read-out: EC50
[8] = tested on: influenza virus, various viral strains; type: cell-based; settings: VYR/Neutral Red
in vitro = settings: dog

CCCC[C@H](NC(C)=O)C(=O)N[C@@H](CC(=O)O)C(=O)N[C@H](C(=O)N[C@@H](CC(N)=O)C(=O)N[C@]1(C)CCCCCCC=CCCC[C@@](C)(C(=O)N[C@@H](C)C(=O)N[C@@H](C)C(=O)N[C@@H](CCC(N)=O)C(N)=O)NC(=O)[C@H](C)NC(=O)[C@H](CC(C)C)NC(=O)[C@H](Cc2ccccc2)NC(=O)[C@H](CC(C)C)NC(=O)[C@H](CC(C)C)NC(=O)[C@H]([C@@H](C)O)NC1=O)C(C)C [SP-18] (Ac-[Nle]DVN[R8]TLLFLA[S5]AAQ-NH2; staple 5-12)
EC50 (H1N1 California/07/2009 [1]): 1.5 to 10 µM | EC50 (H3N2 Perth/16/2009 [2]; Cytopathic effect/toxicity (Visual), MDCK cells, read-out: EC50 (μM) H3N2 Perth/16/2009): 25 to 50 µM | EC50 (H3N2 Perth/16/2009 [2]; Influenza A H3N2 Perth/16/2006 (so in the source), Drug Assay Visual, read-out: EC50): 14 µM | EC50 (H1N1 California/07/2009 [3]; Cytopathic effect/toxicity (Neutral red), MDCK cells, read-out: EC50 (μM) H1N1 California/07/2009): 1.5 to 10 µM | EC50 (H1N1 California/07/2009 [3]; Influenza A H1N1 California/07/20/09 (so in the source), later run, Drug Assay Neutral Red, read-out: EC50): 7 µM | EC90 (H1N1 California/07/2009 [3]; Influenza A H1N1 California/07/20/09 (so in the source), Drug Assay Visual/Neutral Red): 4 µM | EC50 (H1N1 California/07/2009 [3]; Influenza A H1N1 California/07/2009, Drug Assay Neutral Red, read-out: EC50): 3.8 µM | EC50 (H3N2 Perth/16/2009 [4]; Cytopathic effect/toxicity (Neutral red), MDCK cells, read-out: EC50 (μM) H3N2 Perth/16/2009): 25 to 50 µM | EC50 (H3N2 Perth/16/2009 [4]; Influenza A H3N2 Perth/16/2006 (so in the source), Drug Assay Neutral Red, read-out: EC50): 22 µM | EC50 (H3N2 Perth/16/2009 [4]; Influenza A H3N2 Perth/16/2009, last run, Drug Assay Neutral Red, read-out: EC50): > 100 µM | EC90 (H3N2 Perth/16/2009 [4]; Influenza A H3N2 Perth/16/2009, Drug Assay Visual/Neutral Red): > 100 µM | EC50 (H3N2 Perth/16/2009 [4]; Influenza A H3N2 Perth/16/2009, Neutral Red, read-out: EC50): 33 µM | EC50 [5]: 29 µM | EC50 [6]: > 50 µM | EC50 (H7N9 A/Anhui/1/2013): > 50 µM | EC50 ([7]; Influenza A H1N1 A/Solomon Is./3/2006-M, Drug Assay Visual): 13 µM | EC50 [7]: > 50 µM | EC90 ([8]; Influenza A H1N1 California/07/2009): 6.4 µM | EC90 ([8]; Influenza A H3N2 Perth/16/2009): > 100 µM | CC50 (in vitro; CC50): > 50 µM | CC50 (in vitro; CC50 (μM) H1N1 California/07/2009, Cell cytotoxicity (CC), run with H1N1 California/07/2009): > 100 µM | CC50 (in vitro; CC50 (μM) H3N2 Perth/16/2009, Cell cytotoxicity (CC), run with H3N2 Perth/16/2009): > 100 µM | CC50 (in vitro; CC50, MDCK cells, run with Influenza A H1N1 California/07/2009, Neutral Red): > 100 µM | CC50 (in vitro; CC50, MDCK cells, run with Influenza A H1N1 California/07/2009, VYR/Neutral Red): > 100 µM | CC50 (in vitro; CC50, MDCK cells, run with Influenza A H1N1 California/07/2009, Visual): > 100 µM | CC50 (in vitro; CC50, MDCK cells, run with Influenza A H3N2 Perth/16/2009, Neutral Red): > 100 µM | CC50 (in vitro; CC50, MDCK cells, run with Influenza A H3N2 Perth/16/2009, VYR/Neutral Red): > 100 µM | CC50 (in vitro; CC50, run with Influenza A H1N1 A/Solomon Is./3/2006-M, Neutral Red): > 100 µM | CC50 (in vitro; CC50, run with Influenza A H1N1 A/Solomon Is./3/2006-M, Visual): > 100 µM | CC50 (in vitro; CC50, run with Influenza A H1N1 California/07/20/09 (so in the source), later run, Neutral Red): > 100 µM | CC50 (in vitro; CC50, run with Influenza A H1N1 California/07/20/09 (so in the source), Visual/Neutral Red): > 100 µM | CC50 (in vitro; CC50, run with Influenza A H1N1 California/07/2009, Neutral Red): > 100 µM | CC50 (in vitro; CC50, run with Influenza A H3N2 Perth/16/2006 (so in the source), Neutral Red): > 100 µM | CC50 (in vitro; CC50, run with Influenza A H3N2 Perth/16/2006 (so in the source), Visual): > 100 µM | CC50 (in vitro; CC50, run with Influenza A H3N2 Perth/16/2009, last run, Neutral Red): > 100 µM | CC50 (in vitro; CC50, run with Influenza A H3N2 Perth/16/2009, Visual/Neutral Red): > 100 µM
